According to patent publication US9688722B2, “Substrates and inhibitors of prolyl oligopeptidase and methods of use” (The Board of Regents of the University of Oklahoma, priority 2012, dated 2017):
Entries after “also recorded” stand apart in the source; their conditions may differ. Where two headings read alike, the source gives them in different places. Blank lines part the entries; values can stand above or below the compound they belong to. Non-standard residues stand in square brackets, D forms with d. Residues, ends and D or L forms follow the SMILES beside them. *: point of attachment. AFC = O=c1cc(C(F)(F)F)c2ccc(N*)cc2o1; Tic = O=C(O)[C@@H]1Cc2ccccc2CN1; AMC = Cc1cc(=O)oc2cc(N*)ccc12; Cbz = O=C(OCc1ccccc1)*; AEEA = NCCOCCOCC(=O)O

Columns and labels:
[1] = target: T1, DPPIV (Homo sapiens, UniProt P27487); assay: DPPIV inhibition constants (Ki) with Tic-Pro-AFC substrate; type: biochemical; conditions: for Ki: substrate Tic-Pro-AFC; for Selectivity Ki (DPPIV) / Ki (APCE-FAP): ratio of Ki values
Procedure: (§1) For accurate assessment of kinetic parameters, saturating concentrations of substrate were used. For standard curves, dilutions of AFC (7-amino-4-trifluoromethylcoumarin) were prepared in the same assay buffer and corresponding fluorescence was measured.

[2] = target: T2, APCE/FAP (Homo sapiens, UniProt Q12884); assay: APCE/FAP inhibition constants (Ki) with Tic-Pro-AFC substrate; type: biochemical; conditions: for Ki: substrate Tic-Pro-AFC
T2 construct: absence of an about 26-residue amino terminal peptide constituting the transmembrane and intracytosolic domains; from tissue
T2 sequence (Q12884 24-760 limits assumed): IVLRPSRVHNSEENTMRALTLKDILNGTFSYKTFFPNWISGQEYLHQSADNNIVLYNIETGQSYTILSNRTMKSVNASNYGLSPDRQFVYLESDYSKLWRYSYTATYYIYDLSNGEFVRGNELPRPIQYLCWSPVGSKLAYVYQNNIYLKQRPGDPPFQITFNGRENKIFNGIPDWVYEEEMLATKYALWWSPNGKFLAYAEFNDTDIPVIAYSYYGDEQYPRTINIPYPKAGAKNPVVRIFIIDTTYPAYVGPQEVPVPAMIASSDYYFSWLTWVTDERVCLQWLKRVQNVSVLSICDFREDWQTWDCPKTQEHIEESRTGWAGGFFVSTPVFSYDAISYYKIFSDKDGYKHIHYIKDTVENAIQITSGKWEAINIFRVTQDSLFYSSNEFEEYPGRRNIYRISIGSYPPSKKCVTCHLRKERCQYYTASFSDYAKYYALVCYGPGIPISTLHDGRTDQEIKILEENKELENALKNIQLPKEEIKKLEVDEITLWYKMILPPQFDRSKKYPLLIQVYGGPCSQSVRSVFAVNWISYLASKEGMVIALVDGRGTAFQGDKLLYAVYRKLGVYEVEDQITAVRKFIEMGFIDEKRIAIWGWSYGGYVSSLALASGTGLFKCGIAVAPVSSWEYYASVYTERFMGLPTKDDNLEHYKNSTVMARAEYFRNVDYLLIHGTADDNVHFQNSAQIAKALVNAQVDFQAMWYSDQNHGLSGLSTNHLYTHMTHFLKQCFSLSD
Procedure: as §1

[3] = target: T3, POP (Homo sapiens, UniProt P48147); assay: Cleavage kinetics of fluorescent substrates by POP; type: biochemical; conditions: for Km / kcat: substrate cleaved by POP
T3 sequence (P48147 1-710): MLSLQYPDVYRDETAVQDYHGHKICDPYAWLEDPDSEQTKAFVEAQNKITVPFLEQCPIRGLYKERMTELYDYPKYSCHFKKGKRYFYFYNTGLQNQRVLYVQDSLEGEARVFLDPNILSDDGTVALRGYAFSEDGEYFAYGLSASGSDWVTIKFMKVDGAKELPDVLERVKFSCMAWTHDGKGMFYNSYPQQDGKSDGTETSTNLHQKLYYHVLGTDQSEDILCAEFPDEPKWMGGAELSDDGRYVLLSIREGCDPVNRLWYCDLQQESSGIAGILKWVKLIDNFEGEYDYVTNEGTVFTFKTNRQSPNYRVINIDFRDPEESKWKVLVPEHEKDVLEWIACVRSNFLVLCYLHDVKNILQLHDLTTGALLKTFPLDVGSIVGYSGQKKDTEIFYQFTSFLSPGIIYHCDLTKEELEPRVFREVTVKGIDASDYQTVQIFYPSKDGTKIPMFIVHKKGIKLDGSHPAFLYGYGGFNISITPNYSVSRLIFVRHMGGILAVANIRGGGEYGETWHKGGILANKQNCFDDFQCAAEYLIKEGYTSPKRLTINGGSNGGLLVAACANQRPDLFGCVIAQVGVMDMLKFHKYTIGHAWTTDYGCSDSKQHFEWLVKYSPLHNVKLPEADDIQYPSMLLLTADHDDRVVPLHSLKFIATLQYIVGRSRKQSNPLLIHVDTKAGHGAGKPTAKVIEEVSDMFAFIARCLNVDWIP
Procedure: (§2) APCE (^˜4 μg), DPPIV (^˜2 μg) or POP (^˜2 μg) was incubated in 25 mM sodium phosphate buffer, pH 7.5, containing 1.0 mM EDTA and 2% methanol in a total volume of 200 μl for 20 min at 22° C. Using Tic-Pro-AFC (10-300 μM for APCE, 5-200 μM for DPPIV, and 40-800 μM for POP), fluorescence was monitored with time at excitation/emission wavelengths of 400/508 nm, using a black-sided 96-well plate in a BIO-TEK FL600 fluorescence plate reader. For accurate assessment of kinetic parameters, saturating concentrations of substrate were used. For standard curves, dilutions of AFC (7-amino-4-trifluoromethylcoumarin) were prepared in the same assay buffer and corresponding fluorescence was measured.
(§3) Characterization of Tic-Pro-AFC as substrate: A new substrate, Tic-Pro-AFC, was used for assessing APCE/FAP, DPPIV and POP, each belonging to the same clade of prolyl-specific serine proteinases and each with activity towards unique substrates. […] Based on Ki, Km and kcat values in Tables 6 and 7, Tic-Pro-AFC was readily cleaved by each enzyme, with kcat/Km for APCE/FAP being slightly higher than POP and slightly lower than DPPIV. […] Thus, Tic-Pro-AFC was chosen as the substrate for comparing the potency and selectivity of the inhibitors towards APCE/FAP, DPPIV, or POP.

[4] = target: T2, APCE/FAP; assay: Cleavage kinetics of fluorescent substrates by APCE/FAP; type: biochemical
Procedure: as §2, §3

[5] = target: T1, DPPIV; assay: Cleavage kinetics of fluorescent substrates by DPPIV; type: biochemical; conditions: for cleavage of substrate by DPPIV: result in words
Procedure: as §2, §3

[6] = before cyclizing and losing inhibitory activity; cited from earlier work
[7] = target: T1, DPPIV; conditions: result in words; cited from earlier work
[8] = test system: HCT116 human colon cancer xenografts; assay: HCT116 human colon cancer xenografts in immunodeficient mice; type: in vivo; conditions: 28-day treatment period
[9] = target: T3, POP; assay: POP inhibition constants (Ki) with Tic-Pro-AFC substrate; type: biochemical; conditions: for Ki: substrate Tic-Pro-AFC; for Selectivity Ki (POP) / Ki (APCE/FAP): ratio of Ki values
Procedure: as §1

[10] = Aqueous solubility; type: physicochemical; conditions: result in words
Procedure: The specific POP inhibitor, J94 (acetyl-Lys-Leu-Arg-(L)boroPro (Ki<100 nM)); and the substrate, C95 (acetyl-Arg-AEEA-Gly-Pro-AMC), were designed, synthesized and characterized by us as previously reported. […] The inhibitors (J94 and M83) were dissolved in Hanks Balanced Salt Solution (HBSS; Gibco) at 1 mM and stored at −20° C. The substrate (C95) was dissolved in HBSS at 2.5 mM and stored at 4° C. […] Tic-Pro-AFC, a prolyl-specific fluorescent substrate, was supplied by Vantia (Southampton, England).

[11] = test system: HMVEC-d; assay: Tube formation assay of HMVEC-d on Matrigel; type: cell-based, human; conditions: 50 μM inhibitor
Procedure: For tube formation assays, Matrigel™ (BD Biosciences, San Jose, Calif.) 80 μl was added to black-sided, clear bottom 96-well plates as above and allowed to gel at 37° C. for 30 minutes. Then 15,000 HMVEC-d in EC media without serum were added and allowed to settle for 1 hour. […] The reader was maintained at 37° C. and fluorescence was measured with time for 18 hours.

T1 sequence (P27487 whole entry, species assumed): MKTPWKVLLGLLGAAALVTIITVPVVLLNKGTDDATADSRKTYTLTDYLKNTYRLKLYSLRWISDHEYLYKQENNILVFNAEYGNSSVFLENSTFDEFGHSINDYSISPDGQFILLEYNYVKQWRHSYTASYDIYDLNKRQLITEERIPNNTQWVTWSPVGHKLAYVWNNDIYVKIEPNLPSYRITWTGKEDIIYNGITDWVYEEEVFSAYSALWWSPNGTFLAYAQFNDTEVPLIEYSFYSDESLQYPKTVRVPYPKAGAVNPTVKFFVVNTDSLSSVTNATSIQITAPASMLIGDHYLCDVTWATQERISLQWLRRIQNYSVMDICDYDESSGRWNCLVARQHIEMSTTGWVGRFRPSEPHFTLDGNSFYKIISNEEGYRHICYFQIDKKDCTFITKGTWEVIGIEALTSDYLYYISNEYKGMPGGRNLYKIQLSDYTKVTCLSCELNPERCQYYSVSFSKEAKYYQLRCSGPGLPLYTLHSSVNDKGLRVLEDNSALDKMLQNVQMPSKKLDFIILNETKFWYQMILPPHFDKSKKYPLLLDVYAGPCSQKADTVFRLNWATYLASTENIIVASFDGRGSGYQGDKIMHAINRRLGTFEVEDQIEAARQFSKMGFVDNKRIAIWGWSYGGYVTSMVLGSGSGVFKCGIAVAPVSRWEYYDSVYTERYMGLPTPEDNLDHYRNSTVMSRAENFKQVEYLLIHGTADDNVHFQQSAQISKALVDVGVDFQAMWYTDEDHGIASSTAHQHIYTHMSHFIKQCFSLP

Compound: CC(=O)N[C@@H](CCCNC(=N)N)C(=O)NCCOCCOCC(=O)N[C@H](C)C(=O)N1CCC[C@@H]1B(O)O (single isomer, unassigned) [Ac-Arg-peg-D-Ala-D-boroPro]
Ki [1]: 20500 nM
Ki [2]: 189 nM

Compound: Ac-Arg-peg-D-Ala-DL(25:75%)-boroPro
Ki [2]: 7.7 nM

Compound: CC(=O)N[C@@H](CCCCN)C(=O)N[C@@H](CC(C)C)C(=O)N[C@@H](CCCNC(=N)N)C(=O)N1CCC[C@H]1C(=O)Nc1ccc2c(C)cc(=O)oc2c1 [Compound L96, acetyl-Lys-Leu-Arg-Pro-AMC] (Ac-KLRP-{AMC})
Km [3]: 30 ± 3 µM
kcat [3]: 2.4 ± 0.1 s⁻¹
cleavage of substrate by APCE/FAP ([4]; result in words): Neither DPPIV nor APCE/FAP cleaved
cleavage of substrate by DPPIV [5]: Neither DPPIV nor APCE/FAP cleaved

Compound: N[C@@H](CCC(=O)O)C(=O)N1CCC[C@H]1B(O)O [Glu-boroPro, glutamyl-proline boronic acid]
plasma half-life [6]: exceptionally short
inhibition of DPPIV [7]: also inhibits

Compound: CC(=O)N[C@@H](CCCCN)C(=O)N[C@@H](CC(C)C)C(=O)N[C@@H](CCCNC(=N)N)C(=O)N1CCC[C@H]1B(O)O [Compound J94, acetyl-Lys-Leu-Arg-(L)boroPro]
diminished cancer growth [8]: ~75%
inhibition of DPPIV ([1]; result in words): nor was it inhibited
Ki [9]: < 100 nM
inhibition of FAP ([2]; result in words): none towards FAP; also recorded: no effect on FAP
solubility in aqueous buffers [10]: soluble in aqueous buffers
formation of capillary-like tubes [11]: inhibited formation of capillary-like tubes; also recorded: abrogated the genesis of capillary-like tubes

Compound: CC(C)[C@H](N)C(=O)N1CCC[C@H]1B(O)O [Val-boroPro]
inhibition of DPPIV [7]: also inhibit

Compound: CC(=O)N[C@@H](CCCNC(=N)N)C(=O)NCCOCCOCC(=O)N[C@H](CC(=O)O)C(=O)N1CCC[C@H]1B(O)O [Ac-Arg-peg-D-Asp-L-boroPro]
Selectivity Ki (DPPIV) / Ki (APCE-FAP) [1]: 5.2
Ki [1]: 7130 nM
Selectivity Ki (POP) / Ki (APCE/FAP) [9]: 0.02
Ki [9]: 23.9 nM
Ki [2]: 1380 nM

Compound: Cc1cc(=O)oc2cc(NC(=O)[C@@H]3CCCN3C(=O)CNC(=O)OCc3ccccc3)ccc12 [Z-GP-AMC, benzyloxycarbonyl (Z)-GP-AMC] (Cbz-Gly-Pro-{AMC})
cleavage of substrate by DPPIV [5]: not cleaved by DPPIV

Compound: O=C(Nc1ccc2c(C(F)(F)F)cc(=O)oc2c1)[C@@H]1CCCN1C(=O)[C@@H]1Cc2ccccc2CN1 [Tic-Pro-AFC] (H-[Tic]-Pro-{AFC})
Km [3]: 161 ± 12 µM
kcat [3]: 0.76 ± 0.01 s⁻¹
Km ([4]; substrate cleaved by APCE/FAP): 53 ± 5 µM
kcat ([4]; substrate cleaved by APCE/FAP): 1.19 ± 0.11 s⁻¹
Km ([5]; substrate cleaved by DPPIV): 33 ± 2 µM
kcat ([5]; substrate cleaved by DPPIV): 1.49 ± 0.12 s⁻¹

Compound: CC(=O)N[C@@H](CCCNC(=N)N)C(=O)NCC(=O)NCC(=O)N1CCC[C@H]1B(O)O [Ac-Arg-Gly-Gly-L-boroPro]
Selectivity Ki (POP) / Ki (APCE/FAP) [9]: 0.1
Ki [9]: 1.6 nM

Further lines, with some results ahead:

Selectivity Ki (DPPIV) / Ki (APCE-FAP) [1]: 1176
Ki [1]: 11200 nM
Ki [2]: 9.5 nM
Compound: Ac-Arg-peg-D-Ala-DL(50:50%)-boroPro

Ki [2]: 18.3 nM
Compound: Ac-Arg-peg-D-Ala-DL(75:25%)-boroPro

cleavage of substrate by POP ([3]; result in words): not cleaved by POP
Compound: Cc1cc(=O)oc2cc(NC(=O)[C@@H]3CCCN3C(=O)CN)ccc12 [GP-AMC] (H-Gly-Pro-{AMC})

Ki [1]: 861 nM
Selectivity Ki (POP) / Ki (APCE/FAP) [9]: 1.1
Ki [9]: 2.9 nM
Ki [2]: 2.7 nM
Compound: CC(=O)N[C@@H](CCCNC(=N)N)C(=O)NCCOCCOCC(=O)N[C@@H](CO)C(=O)NCC(=O)N1CCC[C@H]1B(O)O [Ac-Arg-peg-Ser-Gly-L-boroPro]

solubility in aqueous buffers [10]: soluble in aqueous buffers
cleavage of substrate by DPPIV [5]: neither cleaved
Compound: CC(=O)N[C@@H](CCCNC(=N)N)C(=O)NCCOCCOCC(=O)NCC(=O)N1CCC[C@H]1C(=O)Nc1ccc2c(C)cc(=O)oc2c1 [Compound C95, acetyl-Arg-AEEA-Gly-Pro-AMC] (Ac-R[AEEA]GP-{AMC})
relative rate of cleavage by FAP and POP ([4]; FAP and POP at equimolar concentrations): equivalent rates; also recorded: cleaved at equal rates by FAP or POP

Selectivity Ki (DPPIV) / Ki (APCE-FAP) [1]: 371
Ki [1]: 1150 nM
Ki [2]: 3.1 nM
Compound: Ac-Arg-peg-Gly-DL-boroPro

Ki [1]: 440 nM
Selectivity Ki (POP) / Ki (APCE/FAP) [9]: 1.2
Ki [9]: 2.1 nM
Ki [2]: 1.8 nM
Compound: CC(=O)N[C@@H](CCCNC(=N)N)C(=O)NCCOCCOCC(=O)NCC(=O)N1CCC[C@H]1B(O)O [Ac-Arg-peg-Gly-L-boroPro]

Selectivity Ki (DPPIV) / Ki (APCE-FAP) [1]: 14.9
Ki [1]: 341 nM
Ki [2]: 22.9 nM
Compound: Ac-Arg-Gly-Gly-DL-boroPro
